What is called IC50 is the concentration needed to halve the response being measured.

17 compounds from US11667651B2, “Aminopyridine derivatives as phosphatidylinositol phosphate kinase inhibitors” (HiberCell, Inc., priority 2017, dated 2023) can be followed below.

The target of assay [1] is T1, PIP4K2B (Homo sapiens, UniProt P78356).
T1 construct: made in house; host or cells: E. coli
T1 sequence (P78356 1-416): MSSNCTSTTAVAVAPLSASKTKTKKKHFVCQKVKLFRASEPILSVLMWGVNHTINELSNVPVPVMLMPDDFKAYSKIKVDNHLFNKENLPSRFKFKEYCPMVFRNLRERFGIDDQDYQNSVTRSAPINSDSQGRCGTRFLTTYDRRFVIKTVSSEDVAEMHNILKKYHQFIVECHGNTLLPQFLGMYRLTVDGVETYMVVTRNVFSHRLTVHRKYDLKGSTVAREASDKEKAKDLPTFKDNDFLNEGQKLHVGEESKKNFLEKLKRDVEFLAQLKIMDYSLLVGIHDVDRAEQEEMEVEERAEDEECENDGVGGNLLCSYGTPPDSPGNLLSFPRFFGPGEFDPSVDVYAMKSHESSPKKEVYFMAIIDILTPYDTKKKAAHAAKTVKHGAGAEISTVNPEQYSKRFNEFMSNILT
The assay can be described thus: Trans-FI P kinase assay PIP4K2B (Table 4). The class given is biochemical. Particulars: compounds listed under IC50 bins; read-out: Trans-FI P kinase assays: PIP4K2B IC50. Put shortly:
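Transcreener FI detection (Ex 584/Em 623) of GDP, converted via calibration curve, gives IC50 from residual activity versus log concentration (highest 4.8 μM). Reaction: 80 μM PI5P plus DOPE carrier, 100 μM GTP, 5 nM GST-tagged enzyme, pH 7.3 HEPES with MgCl2 and 5% DMSO, 2 h after 1 h enzyme-compound preincubation at 27° C.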

In assay [2] the target is T2, PIP4K2A (Homo sapiens, UniProt P48426).
T2 sequence (P48426 1-406): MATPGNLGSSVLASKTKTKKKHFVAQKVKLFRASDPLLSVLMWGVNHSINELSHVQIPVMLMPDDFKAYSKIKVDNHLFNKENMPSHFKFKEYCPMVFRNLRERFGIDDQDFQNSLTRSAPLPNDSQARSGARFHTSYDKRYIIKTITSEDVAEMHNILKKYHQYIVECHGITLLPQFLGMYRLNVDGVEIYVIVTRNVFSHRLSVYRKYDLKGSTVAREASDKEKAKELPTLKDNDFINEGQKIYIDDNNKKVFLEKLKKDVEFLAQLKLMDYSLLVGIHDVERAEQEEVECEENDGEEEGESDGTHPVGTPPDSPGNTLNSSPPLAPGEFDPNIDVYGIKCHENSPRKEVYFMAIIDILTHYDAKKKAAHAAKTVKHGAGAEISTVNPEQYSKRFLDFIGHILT
Kind of assay: ADP-glo kinase assay PIP4K 2A (Table 3). Type of assay: biochemical. Further details: made in house; host or cells: E. coli. The following applies: compounds listed under IC50 bins. How it is done:
Dilution series of the compounds were prepared in DMSO at 100 times the final assay concentration (n1=n0/3 in 10 points). The compounds were further diluted to three times the assay concentration in assay buffer (20 mM MOPS pH 7.2, 25 mM magnesium chloride, 0.005% Tween 20). 6 μL of the diluted compounds were added to a 384 well assay plate followed by 9 μL of a mix consisting of 4 nM PIP4K2A (full length protein, SignalChem) and 100 μM PI(5)P diC8 (Tebu-Bio). Enzyme and compounds were pre-incubated at room temperature for 15 minutes.
Then 3 μL of a solution containing 60 μM ATP (Promega) in assay buffer was added to the wells containing compound and enzyme and mixing was performed by pipetting several times. The reaction was incubated at room temperature for 1 h. Then 18 μL of ADP-Glo™ Reagent (Promega) was added to stop the kinase reaction and deplete the unconsumed ATP, mixing was performed by pipetting several times. The plate was incubated at room temperature for 40 minutes before addition of 36 μL of Kinase Detection Reagent (Promega) to convert ADP to ATP and introduce luciferase and luciferin to detect ATP. The reaction was incubated at room temperature for 40 minutes before the luminescence was measured in a in a Victor 3V 1420 multilabel counter (Perkin Elmer).
Percent inhibition of the compounds as compared to dimethyl sulfoxide treated control samples was calculated. Compound concentration versus percent inhibition were fitted to generate IC50 values. […]
On the technique in general: ADP-Glo first removes unused ATP, then detects ADP through luciferase.

Take `Cc1cc(N2CCCC2=O)ccc1-c1cnc(Nc2cnc3c(c2)N2C(=O)CC[C@H]2CO3)nc1` [Example 198, (S)-2-((5-(2-methyl-4-(2-oxopyrrolidin-1-yl)phenyl)pyrimidin-2-yl)amino)-6,6a,7,8-tetrahydro-9H-pyrido[2,3-b]pyrrolo[1,2-d][1,4]oxazin-9-one]: the IC50 in assay [1] and in assay [2] was 1 to 10 nM in each case.
Take `Nc1nc(Nc2cnc3c(c2)N2C(=O)CC[C@H]2CO3)ncc1-c1ccc(N2CCCC2=O)cc1` [Example 199, (S)-2-((4-amino-5-(4-(2-oxopyrrolidin-1-yl)phenyl)pyrimidin-2-yl)amino)-6,6a,7,8-tetrahydro-9H-pyrido[2,3-b]pyrrolo[1,2-d][1,4]oxazin-9-one]: the IC50 in assay [1] and in assay [2] was 1 to 10 nM throughout.
Consider `COc1nc(Nc2cnc3c(c2)N2C(=O)C4(CC4)C[C@H]2CO3)ncc1-c1ccc(N2CCCC2=O)cc1` [Example 200, (S)-2′-((4-methoxy-5-(4-(2-oxopyrrolidin-1-yl)phenyl)pyrimidin-2-yl)amino)-6a′,7′-dihydro-6′H,9′H-spiro[cyclopropane-1,8′-pyrido[2,3-b]pyrrolo[1,2-d][1,4]oxazin]-9′-one], for which the IC50 in assay [1] is 1 to 10 nM; in assay [2], not above 1 nM.
With `Cc1nc(Nc2cnc3c(c2)N2C(=O)C4(CC4)C[C@H]2CO3)ncc1-c1ccc(N2CCCC2=O)cc1` [Example 201, (S)-2′-((4-methyl-5-(4-(2-oxopyrrolidin-1-yl)phenyl)pyrimidin-2-yl)amino)-6a′,7′-dihydro-6′H,9′H-spiro[cyclopropane-1,8′-pyrido[2,3-b]pyrrolo[1,2-d][1,4]oxazin]-9′-one], the IC50 in assay [1] and in assay [2] was 1 to 10 nM throughout.
Turning to `Cc1cc(N2CCCC2=O)ccc1-c1cnc(Nc2cnc3c(c2)N2C(=O)C4(CC4)C[C@H]2CO3)nc1` [Example 203, (S)-2′-((5-(2-methyl-4-(2-oxopyrrolidin-1-yl)phenyl)pyrimidin-2-yl)amino)-6a′,7′-dihydro-6′H,9′H-spiro[cyclopropane-1,8′-pyrido[2,3-b]pyrrolo[1,2-d][1,4]oxazin]-9′-one], the IC50 in assay [1] and in assay [2] was 1 to 10 nM throughout.
As to `Nc1nc(Nc2cnc3c(c2)N2C(=O)C4(CC4)C[C@H]2CO3)ncc1-c1ccc(N2CCCC2=O)cc1` [Example 204, (S)-2′-((4-amino-5-(4-(2-oxopyrrolidin-1-yl)phenyl)pyrimidin-2-yl)amino)-6a′,7′-dihydro-6′H,9′H-spiro[cyclopropane-1,8′-pyrido[2,3-b]pyrrolo[1,2-d][1,4]oxazin]-9′-one], the IC50 in assay [1] and in assay [2] was 1 to 10 nM throughout.
Consider `O=C1CCCN1c1ccc(-c2cnc(Nc3cnc4c(c3)N3C(=O)C5(CC5)C[C@H]3CO4)nc2)cc1` [Example 205, (S)-2′-((5-(4-(2-oxopyrrolidin-1-yl)phenyl)pyrimidin-2-yl)amino)-6a′,7′-dihydro-6′H,9′H-spiro[cyclopropane-1,8′-pyrido[2,3-b]pyrrolo[1,2-d][1,4]oxazin]-9′-one], for which the IC50 in assay [1] and in assay [2] was 1 to 10 nM in each case.
In the case of `Cc1cc(Nc2cnc3c(c2)N2C(=O)C4(CC4)C[C@H]2CO3)ncc1-c1ccc(N2CCCC2=O)cc1` [Example 206, (S)-2′-((4-methyl-5-(4-(2-oxopyrrolidin-1-yl)phenyl)pyridin-2-yl)amino)-6a′,7′-dihydro-6′H,9′H-spiro[cyclopropane-1,8′-pyrido[2,3-b]pyrrolo[1,2-d][1,4]oxazin]-9′-one], the IC50 was in the range of 10 to 100 nM in assay [1] and 1 to 10 nM in assay [2].
In the case of `COCc1cc(Nc2cnc3c(c2)N2C(=O)C4(CC4)C[C@H]2CO3)ncc1-c1ccc(N2CCCC2=O)cc1` [Example 207, (S)-2′-((4-(methoxymethyl)-5-(4-(2-oxopyrrolidin-1-yl)phenyl)pyridin-2-yl)amino)-6a′,7′-dihydro-6′H,9′H-spiro[cyclopropane-1,8′-pyrido[2,3-b]pyrrolo[1,2-d][1,4]oxazin]-9′-one], the IC50 in assay [1] and in assay [2] was 1 to 10 nM throughout.
On to `Cc1cc(N2CCCC2=O)ccc1-c1ccc(Nc2cnc3c(c2)N2C(=O)C4(CC4)C[C@H]2CO3)nc1` [Example 208, (S)-2′-((5-(2-methyl-4-(2-oxopyrrolidin-1-yl)phenyl)pyridin-2-yl)amino)-6a′,7′-dihydro-6′H,9′H-spiro[cyclopropane-1,8′-pyrido[2,3-b]pyrrolo[1,2-d][1,4]oxazin]-9′-one], for which the IC50 in assay [1] and in assay [2] was 10 to 100 nM throughout.
Consider `CC(C)c1cc(Nc2cnc3c(c2)N2C(=O)C4(CC4)C[C@H]2CO3)ncc1-c1ccc(N2CCCC2=O)cc1` [Example 210, (S)-2′-((4-isopropyl-5-(4-(2-oxopyrrolidin-1-yl)phenyl)pyridin-2-yl)amino)-6a′,7′-dihydro-6′H,9′H-spiro[cyclopropane-1,8′-pyrido[2,3-b]pyrrolo[1,2-d][1,4]oxazin]-9′-one], for which the IC50 in assay [1] is 1 to 10 nM; in assay [2], not above 1 nM.
Consider `O=C1CCCN1c1ccc(-c2cnc(Nc3cnc4c(c3)N3C(=O)C5(CC5)C[C@H]3CO4)cc2C2CC2)cc1` [Example 211, (S)-2′-((4-cyclopropyl-5-(4-(2-oxopyrrolidin-1-yl)phenyl)pyridin-2-yl)amino)-6a′,7′-dihydro-6′H,9′H-spiro[cyclopropane-1,8′-pyrido[2,3-b]pyrrolo[1,2-d][1,4]oxazin]-9′-one], for which the IC50 in assay [1] was 1 to 10 nM; in assay [2], not above 1 nM.
On to `COc1cc(Nc2cnc3c(c2)N2C(=O)C4(CC4)C[C@H]2CO3)ncc1-c1ccc(N2CCCC2=O)cc1` [Example 212, (S)-2′-((4-methoxy-5-(4-(2-oxopyrrolidin-1-yl)phenyl)pyridin-2-yl)amino)-6a′,7′-dihydro-6′H,9′H-spiro[cyclopropane-1,8′-pyrido[2,3-b]pyrrolo[1,2-d][1,4]oxazin]-9′-one], for which the IC50 in assay [1] is 1 to 10 nM; in assay [2], not above 1 nM.
Regarding `CC(C)c1nc(Nc2cnc3c(c2)N2C(=O)C4(CC4)C[C@H]2CO3)ncc1-c1ccc(N2CCCC2=O)cc1` [Example 216, (S)-2′-((4-isopropyl-5-(4-(2-oxopyrrolidin-1-yl)phenyl)pyrimidin-2-yl)amino)-6a′,7′-dihydro-6′H,9′H-spiro[cyclopropane-1,8′-pyrido[2,3-b]pyrrolo[1,2-d][1,4]oxazin]-9′-one], the IC50 in assay [1] was 1 to 10 nM; in assay [2] it was not above 1 nM.
The corresponding values for `O=C([C@@H]1CCOC1)N1CCN(c2cncc(Nc3ccc(-c4ccc(N5CCCC5=O)cc4)cn3)c2)CC1` [Example 244, (R)-1-(4-(6-((5-(4-(tetrahydrofuran-3-carbonyl)piperazin-1-yl)pyridin-3-yl)amino)pyridin-3-yl)phenyl)pyrrolidin-2-one] are 10 to 100 nM and 100 to 1000 nM.
For the compound `O=C([C@H]1CCOC1)N1CCN(c2cncc(Nc3ccc(-c4ccc(N5CCCC5=O)cc4)cn3)c2)CC1` [Example 245, (S)-1-(4-(6-((5-(4-(tetrahydrofuran-3-carbonyl)piperazin-1-yl)pyridin-3-yl)amino)pyridin-3-yl)phenyl)pyrrolidin-2-one], the IC50 in assay [1] is 10 to 100 nM; in assay [2], 100 to 1000 nM.
The corresponding values for `O=C(Nc1cncc(Nc2ccc(-c3ccc(N4CCCC4=O)cc3)cn2)c1)C1CC1c1ccccc1` (stereo not shown) [Example 247, N-(5-((5-(4-(2-oxopyrrolidin-1-yl)phenyl)pyridin-2-yl)amino)pyridin-3-yl)-2-phenylcyclopropane-1-carboxamide] are 10 to 100 nM and 1 to 10 nM.
